Test results published in article PMC11369183, “PARP inhibition with rucaparib alone followed by combination with atezolizumab: Phase Ib COUPLET clinical study in advanced gynaecological and triple-negative breast cancers” (British Journal of Cancer, 2024).
Read-outs that look alike come from different tables or passages of the source.

How the values were obtained:
[1] = test system: ovarian cancer, patients with measurable disease; parameters: method as in PMID 32073956; conditions: olaparib alone; cited from earlier work
[2] = test system: antidrug antibodies (ADAs) to atezolizumab; assay: Incidence of antidrug antibodies (ADAs) to atezolizumab; type: in vivo, human; conditions: one of 28 patients evaluable for ADA
From the text: (§1) No formal statistical analyses were planned.

[3] = From the text: The primary objective was to evaluate the safety and tolerability of the combination by identifying dose-limiting toxicities (DLTs; Supplementary Table 1) that determined the maximum tolerated dose and identifying a potential recommended dose and schedule for subsequent assessments. Safety endpoints included the incidence, nature, and severity of adverse events (AEs) and DLTs according to National Cancer Institute Common Terminology Criteria for Adverse Events version 4.03. Secondary efficacy endpoints comprised objective response rate (ORR) according to Response Evaluation Criteria in Solid Tumours (RECIST) version 1.1, duration of response, progression-free survival (PFS) according to RECIST version 1.1, and overall survival (OS). The PK objective was to determine the PK of rucaparib and atezolizumab combination therapy in plasma and serum, with pre-specified parameters including steady-state maximum concentration observed (Cmax), time to maximum concentration (Tmax), and area under the concentration–time curve (AUC) for rucaparib and serum concentration of atezolizumab in Part 1, and minimum concentration during the dosing interval or trough concentration (Cmin) of rucaparib and serum concentration of atezolizumab in Part 2. The incidence of antidrug antibodies (ADAs) to atezolizumab was an additional secondary endpoint. The study also included pre-specified exploratory biomarker objectives: to evaluate predictive and pharmacodynamic biomarkers of response or resistance to combined rucaparib and atezolizumab therapy in tumour biopsies and blood; and to evaluate additional biomarkers of HRD and novel biomarkers and correlate them with response and/or clinical outcome, including efficacy and safety. No formal statistical analyses were planned.
In Part 1 (dose-finding phase), patients with histologically confirmed ovarian or endometrial cancer who had received at least one prior line of therapy for metastatic disease received varying doses of oral rucaparib (400 mg twice daily in the first cohort, 600 mg twice daily in the second cohort, decreasing to 500 mg in the third cohort if necessary) in combination with a fixed dose of intravenous atezolizumab 1200 mg on Day 1. Cycles were repeated every 21 days and continued until unacceptable toxicity or disease progression if, in the investigator’s opinion, the patient would not derive clinical benefit from continued study treatment. It was planned to enroll ~six to 18 patients in up to three dose cohorts. […] In Part 2 (dose-expansion phase), the recommended Phase II dose was evaluated further for safety, PK, and preliminary activity in two tumour-specific expansion cohorts with an initially targeted enrollment of up to ~50 patients in total. In Cohort 1, eligible patients had platinum-sensitive high-grade serous or grade 3 endometrioid epithelial ovarian, fallopian tube, or primary peritoneal cancer with tumours harbouring a deleterious germline or somatic BRCA mutation (tBRCAmut, Arm A) or a tBRCA-like molecular signature (tBRCA-wild type [wt]/loss of heterozygosity [LOH]high, Arm B). Patients had received one to two prior platinum-containing regimens, with progression >6 months after the last dose of the most recent platinum therapy. In Cohort 2 (Arm C), patients had tBRCAmut or tBRCAwt/LOHhigh TNBC and had received at least one prior line of chemotherapy (without cancer immunotherapy) in the metastatic setting. Part 2 treatment comprised a 21-day run-in period of single-agent rucaparib at the identified recommended rucaparib starting dose (run-in), followed by rucaparib in combination with intravenous atezolizumab 1200 mg on Day 1 (combination). Cycles were repeated every 21 days.

[4] = Atezolizumab serum concentration (sparse PK sampling); type: in vivo
From the text: as §1

CD274 (PD-L1 gene) = assay: RNA sequencing in longitudinal tumour biopsies: CD274; type: in vivo, human; conditions: after rucaparib run-in, responders (not in non-responders)
From the text: (§2) All patients (Parts 1 and 2) were required to have sufficient archival formalin-fixed paraffin-embedded (FFPE) tumour tissue available for planned analyses. […] A further biopsy at disease progression was optional. Tumour and biomarker characteristics are described according to central review result. However, patients could be enrolled or assigned to a cohort based on local test results, to avoid delaying treatment initiation. […] Patients were ineligible if they had previously received treatment with a PARPi, CD137 agonist, or other ICI (including but not limited to anti-PD-1, anti-PD-L1, and anti-CTLA-4 therapeutic antibodies). […] RNA sequencing reads were first aligned to ribosomal RNA sequences to remove ribosomal reads. The remaining reads were aligned to the human reference genome (National Center for Biotechnology Information Build 38) using Genomic Short-read Nucleotide Alignment Program (GSNAP) version 2013-11-01. To quantify gene expression levels, the number of reads mapped to the exons of each RefSeq gene was calculated using the functionality provided by the R/Bioconductor package GenomicAlignments. For each cohort, raw counts for genes were trimmed mean of M-values (TMM)-normalised based on size factors as calculated with CalcNormFactors in the edgeR package. […]

clinical = assay: clinical; parameters: species or system human; conditions: in vivo; for Cmax: female
From the text: as §1

[5] = test system: CD8 T-cell activity signature; assay: RNA sequencing signature in longitudinal tumour biopsies: CD8 T-cell activity; type: in vivo, human; conditions: during rucaparib run-in, in four of five responders
From the text: as §2

cGAS-STING pathway = assay: RNA sequencing signature in longitudinal tumour biopsies: cGAS-STING; type: in vivo, human; conditions: during rucaparib run-in, in four of five responders
From the text: as §2

Apoptosis signature = assay: RNA sequencing signature in longitudinal tumour biopsies: apoptosis; type: in vivo, human; conditions: during run-in, responding patients
From the text: as §2

[6] = test system: DNA damage repair signature; assay: RNA sequencing signature in longitudinal tumour biopsies: DDR; type: in vivo, human; conditions: after the rucaparib run-in
From the text: as §2

[7] = Part 2 TNBC Arm C, n = 5, run-in
[8] = Part 2 ovarian cancer Arms A + B, n = 14, run-in
[9] = Cycle 1 arithmetic mean (CV), sparse PK sampling, Part 2 ovarian cancer Arm B (tBRCAwt/LOHhigh), n = 4

With `O=C(c1cc(Cc2n[nH]c(=O)c3ccccc23)ccc1F)N1CCN(C(=O)C2CC2)CC1` [olaparib] as the compound, how does the ORR [1] read?
The ORR was 72%.

For atezolizumab, which “Patients positive for treatment-emergent ADAs” value [2] is on record?
The value was 4%.

What about the “AE leading to treatment modification/interruption: Atezolizumab” value ([3]; Part 1 Cohort 1 (rucaparib 400 mg), n = 3) of the same compound?
Its value is 1 (33) n (%).

And the “AE leading to treatment modification/interruption: Atezolizumab” value ([3]; Part 1 Cohort 2 (rucaparib 600 mg), n = 6)?
The value was 1 (17) n (%).

What about the “AE leading to treatment modification/interruption: Atezolizumab” value ([3]; Part 2 TNBC Arm C, n = 5, post run-in) of the same compound?
Its value is 1 (20) n (%).

What about the “AE leading to treatment modification/interruption: Atezolizumab” value [3, 7] of the same compound?
Its value is 0 n (%).

What about the “AE leading to treatment modification/interruption: Atezolizumab” value ([3]; Part 2 ovarian cancer Arms A + B, n = 14, post run-in) of the same compound?
The value was 5 (36) n (%).

And the “AE leading to treatment modification/interruption: Atezolizumab” value [3, 8]?
The value was 0 n (%).

What about the “Atezolizumab Cmin” value ([4]; Cycle 1 arithmetic mean (CV), sparse PK sampling, Part 1 Cohort 1, n = 3) of the same compound?
The value was “(n = 3) 84.3 (32.0) μg/mL”.

And the “Atezolizumab Cmin” value ([4]; Cycle 1 arithmetic mean (CV), sparse PK sampling, Part 1 Cohort 2, n = 5)?
Its value is “(n = 5) 96.0 (23.8) μg/mL”.

What about the “Atezolizumab Cmin” value ([4]; Cycle 1 arithmetic mean (CV), sparse PK sampling, Part 2 TNBC Arm C, n = 4) of the same compound?
Its value is “(n = 4) 98.7 (26.3) μg/mL”.

And the “Atezolizumab Cmin” value ([4]; Cycle 1 arithmetic mean (CV), sparse PK sampling, Part 2 ovarian cancer Arm A (tBRCAmut), n = 10)?
Its value is “(n = 10) 77.2 (22.1) μg/mL”.

And the “Atezolizumab Cmax” value [4, 9]?
Its value is “(n = 4) 438 (9.4) μg/mL”.

What about the “Atezolizumab Cmin” value [4, 9] of the same compound?
Its value is “(n = 4) 95.7 (17.9) μg/mL”.

And the “Trough concentrations (Ctrough)” value ([4]; all trough concentrations exceeded the target concentration for maximal receptor occupancy)?
The value was > 6000 ng/mL.

And the “Inter-patient variability, Cmax” value ([4]; atezolizumab)?
Its value is 7.0–35.3%.

What about the “Inter-patient variability, Cmin” value ([4]; atezolizumab) of the same compound?
Its value is 17.9–32.0%.

Which results are given for `CNCc1ccc(-c2[nH]c3cc(F)cc4c3c2CCNC4=O)cc1` [rucaparib]?
Patients with increased CD274 expression (CD274 (PD-L1 gene)): three of five; Cmax (clinical; human, 400 mg): 2270 ng/mL; Cmax (clinical; human, 600 mg): 3180 ng/mL; Inter-individual variability in exposure, AUC (clinical; human): 21.2–41.6%; Inter-individual variability in exposure, Cmax (clinical; human): 27.4–46.8%; Inter-individual variability in exposure, Cmin (clinical; human): 28.6–88.7%; Tmax (clinical; human): 1.5 to 6 h; Rucaparib AUClast (clinical; human, 400 mg): (n = 2) 15 072 (21.2) h·ng/mL; Rucaparib AUClast (clinical; human, 600 mg): (n = 6) 22 082 (41.6) h·ng/mL; Rucaparib Cmin (clinical; human, 21 days): (n = 5) 1180 (52.5) ng/mL; Dose proportionality of kinetics (clinical): dose-proportional kinetics; Increase in CD8 + T-cell activity [5]: > 50%; Increase in cGAS-STING pathway activation (cGAS-STING pathway): > 100%; Grade 5 AE [3, 7]: 0 n (%); Grade 5 AE [3, 8]: 0 n (%); AE leading to treatment modification/interruption: Rucaparib ([3]; human, in vivo): 1 (20) n (%); AE leading to treatment discontinuation ([3]; human, in vivo, 21 days): 0 n (%); AE leading to treatment modification/interruption ([3]; human, in vivo, 21 days): 1 (20) n (%); AE leading to treatment modification/interruption: Rucaparib ([3]; human, in vivo, 21 days): 1 (20) n (%); Any grade AE ([3]; human, in vivo, 21 days): 5 (100) n (%); Grade 3/4 AE ([3]; human, in vivo, 21 days): 2 (40) n (%); Treatment-related AE ([3]; human, in vivo, 21 days): 4 (80) n (%); Patients with increased apoptosis signature expression (Apoptosis signature): three of five; Patients with decreased DDR signature ([6]; non-responders (by <10%)): one of four; Patients with decreased DDR signature ([6]; responders): four of five
